We go through 6 molecules from paper PMC4052304, “New Benzoxazine Secondary Metabolites from an Arctic Actinomycete” (Marine Drugs, 2014).

For data set [1], the target named is Candida albicans isocitrate lyase (ICL) (Candida albicans, UniProt Q9P8Q7). Kind of data set: Inhibition of the isocitrate lyase (ICL) activity assay. It counts as biochemical. The following applies: for inhibitory activity towards ICL (in words): even at high concentrations (100 μg/mL). The protocol: The formation of glyoxylate phenylhydrazone in the presence of phenylhydrazine and isocitrate was measured spectrophotometrically at 324 nm. The enzyme reaction mixture (1 mL) included 1.27 mM threo-DS (+) isocitrate, 3.75 mM MgCl2, 4.1 mM phenylhydrazine, 20 mM sodium phosphate buffer (pH 7.0), and 2.5 μg/mL purified C. albicans ICL. The reaction was performed at 37 °C for 30 min, and the protein concentration was measured using the Bradford method and a Bio-Rad protein assay Kit (Bio-Rad, Alfred Nobel Dr. Hercules, CA, USA) with bovine serum albumin as a standard.

Data set [2] concerns HCT116, A549, SNU638, SK-HEP1, K562 and MDA-MB231 human carcinoma cell lines. Description: Anti-proliferative activity, SRB assay, panel of six human carcinoma cell lines. It counts as cell-based. To be noted: 72 h. The protocol:
(§1) Cell proliferation was analyzed using the sulforhodamine B (SRB) assay. Six human cancer cell lines (HCT116, MDA-MB231, SNU638, A549, K562, and SK-HEP1 at 3 × 10^4 cells/mL) were seeded in 96-well plates at different compound concentrations before incubating at 37 °C in a humidified atmosphere with 5% CO2. After 72 h of treatment, the cells were fixed with a 10% TCA solution for 1 h before staining the cellular proteins with 0.4% SRB in 1% acetic acid. The stained cells were dissolved in 10 mM Tris buffer (pH 10.0). The effects of the compounds on cell proliferation were calculated as percentages relative to the solvent-treated control. In addition, the IC50 values were determined by nonlinear regression analysis (percent survival versus concentration).
A general note: The SRB assay estimates cell density from bound dye.

For data set [3], the system named is HCT116 (colon cancer) cells. Description: Anti-proliferative activity, SRB assay, HCT116. In kind it is cell-based. The following applies: Homo sapiens, HCT-116, 72 h, read-out: IC50, cytotoxicity against HCT116. As for the experimental part:
as §1

Data set [4] concerns K562 (leukemia cancer) cells. Description: Anti-proliferative activity, SRB assay, K562. It counts as cell-based. The following applies: Homo sapiens, K562, 72 h, read-out: IC50, cytotoxicity against K562. The protocol: as §1
The test system of data set [5] is SNU638 (gastric cancer) cells. Description: Anti-proliferative activity, SRB assay, SNU638. In kind it is cell-based. To be noted: Homo sapiens, SNU-638, 72 h, read-out: IC50, cytotoxicity against SNU638. As for the experimental part:
as §1

The test system of data set [6] is MDA-MB231 (breast cancer) cells. Kind of data set: Anti-proliferative activity, SRB assay, MDA-MB231. In kind it is cell-based. To be noted: Homo sapiens, MDA-MB-231, 72 h, read-out: IC50, cytotoxicity against MDA-MB231. The protocol: as §1
In another data set the test system is A549 (lung cancer) cells. Kind of data set: Anti-proliferative activity, SRB assay, A549. It counts as cell-based. To be noted: Homo sapiens, A549, 72 h, read-out: IC50, cytotoxicity against A549. The protocol: as §1
The test system of data set [7] is SK-HEP1 (liver cancer) cells. Kind of data set: Anti-proliferative activity, SRB assay, SK-HEP1. It counts as cell-based. To be noted: Homo sapiens, SK-HEP1, 72 h, read-out: IC50, cytotoxicity against SK-HEP1. As for the experimental part:
as §1

The mark [8] stands for this setting: purified C. albicans ICL 2.5 μg/mL, 37 °C, 30 min, pH 7.0, read-out: IC50, inhibition of Candida albicans isocitrate lyase (ICL).

pIC50: −log10 of the molar value. Like-named read-outs stand apart in the source and are kept apart here.

Chain of Candida albicans isocitrate lyase (ICL) (Q9P8Q7 whole entry): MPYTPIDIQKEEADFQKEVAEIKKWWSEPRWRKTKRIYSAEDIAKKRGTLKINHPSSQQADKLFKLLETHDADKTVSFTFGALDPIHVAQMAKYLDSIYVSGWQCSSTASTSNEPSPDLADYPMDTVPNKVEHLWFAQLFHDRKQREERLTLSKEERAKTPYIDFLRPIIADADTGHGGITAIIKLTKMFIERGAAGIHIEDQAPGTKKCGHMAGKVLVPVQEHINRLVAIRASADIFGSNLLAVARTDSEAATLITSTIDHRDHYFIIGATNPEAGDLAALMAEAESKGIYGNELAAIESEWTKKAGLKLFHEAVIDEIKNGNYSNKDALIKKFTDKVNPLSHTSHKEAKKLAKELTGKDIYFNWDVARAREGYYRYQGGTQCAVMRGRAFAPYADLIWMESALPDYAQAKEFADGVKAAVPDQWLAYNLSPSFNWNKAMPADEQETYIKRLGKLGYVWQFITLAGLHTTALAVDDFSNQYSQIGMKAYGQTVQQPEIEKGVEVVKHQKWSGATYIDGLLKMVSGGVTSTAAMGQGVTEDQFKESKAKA

Regarding `O=C(O)CC[N+](=O)[O-]` [3-nitropropionic acid, reference compound], in data set [1] (setting [8]), the pIC50 (as a rule, the negative decadic logarithm of the IC50, by convention in mol/L) is 4.45.

With `C=C1Oc2cc(OC)cc(C(=O)OC[C@H]3O[C@H](OC[C@H]4O[C@H](O)[C@H](O)[C@@H](O)[C@@H]4O)[C@H](O)[C@@H](O)[C@@H]3O)c2NC1=O` [Compound 1, arcticoside], in data set [1] (setting [8]), the pIC50 is 4.52. Moreover, the “cytotoxicity against human carcinoma cell lines (in words)” value in data set [2] is given as “did not display notable inhibitory activity”.

`C=C1Oc2cc(OC)cc(C(=O)O[C@H]3COC(=O)C[C@H](N)c4cc(O)c(c(Cl)c4)O[C@@H]4c5ccc3c(Cl)c5C3=CC=C[C@@]34O[C@@H]3OC(C)(C)[C@@H](N(C)C)[C@@H](O)[C@H]3O)c2NC1=O` [Compound 2, C-1027 chromophore-V]: the negative logarithm of the IC50 (pIC50) in data set [1] was 4.42; in data set [3] it was 5.57; in data set [4], 4.60; in data set [5] it was 5.01; in data set [6], 6.05; in the data set on A549 (lung cancer) cells, 4.83. Moreover, in data set [7], the pIC50 is 5.10.

On to `C=C1Oc2cc(OC)cc(C(=O)O[C@H]3COC(=O)C[C@H](N)c4cc(O)c(c(Cl)c4)O[C@@H]4c5ccc3cc5C3=CC=C[C@@]34O[C@@H]3OC(C)(C)[C@@H](N(C)C)[C@@H](O)[C@H]3O)c2NC1=O` [Compound 3, C-1027 chromophore-III], for which the pIC50 is 4.59 in data set [1]; 6.22 in data set [3]; 5.32 in data set [4]; 5.96 in data set [5]; 4.36 in data set [6]; 5.66 in the data set on A549 (lung cancer) cells. Further, in data set [7], the pIC50 is 6.05.

In the case of `CC(=O)N[C@H]1CC(=O)OC[C@H](O)c2ccc3c(c2Cl)C2=CC=C[C@]2(O[C@@H]2OC(C)(C)[C@@H](N(C)C)[C@@H](O)[C@H]2O)[C@@H]3Oc2c(O)cc1cc2Cl` [Compound 4, fijiolide A], the “inhibitory activity towards ICL (in words)” value in data set [1] is listed as “no activity”.

`CN(C)[C@H]1[C@@H](O)[C@@H](O)[C@H](O[C@]23C=CC=C2c2c4ccc(c2Cl)[C@@H](O)COC(=O)C[C@H](N)c2cc(O)c(c(Cl)c2)O[C@H]43)OC1(C)C` [Compound 5, fijiolide B]: in data set [1], the “inhibitory activity towards ICL (in words)” value is on record as “no activity”.
